Measured values reported in patent publication US10953027B2, “Active agents and methods of their use for the treatment of metabolic disorders and nonalcoholic fatty liver disease” (Flagship Pioneering Innovations V, Inc., priority 2018, dated 2021).

What was measured:
Assay type in all cases: in vitro ADME
[1] = Assay 1. Stability in Simulated Gastric Fluid (SGF); conditions: 1 μM, 37° C., SGF pH 1.6 with pepsin
Procedure, shortened: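 Acylated compounds at a final 1 μM (diluted from 1 mM DMSO stock) were incubated at 37 °C in SGF of pH 1.6 NaCl buffer with FaSSIF powder and 0.1 mg/mL pepsin. Aliquots were quenched with acetonitrile at T0 and regular intervals, and degradation rates were determined by LC/MS.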

[2] = Assay 2. Stability in Simulated Intestinal Fluid (SIF); conditions: 1 μM, 37° C., SIF pH 6.7 with pancreatin
Procedure, shortened: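 Acylated compounds at 1 μM (from 1 mM DMSO stock) in fresh SIF: FaSSIF with pancreatin in pH 6.7 phosphate buffer, agitated at 37 °C. Aliquots from T0 onward quenched with 1 volume acetonitrile; LC/MS gives degradation rates.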

[3] = Assay 3. Fecal Incubation Stability; conditions: 1 or 10 μM, human fecal slurry, anaerobic
Description: Assay 3. Fecal Incubation Stability. This assay was used to assess the stability of an acylated active agent in a large intestine. All experiments were performed in an anaerobic chamber containing 90% nitrogen, 5% hydrogen and 5% carbon dioxide. Human fecal matter in a slurry (15% WV) is added to 96 well plates containing YCFA media or other suitable media (1.6 mL). Compounds were added to each individual well to reach a final analyte concentration of 1 or 10 μM, and the material was mixed by pipetting. At set time points a sample was removed, quenched with acetonitrile, and analyzed by LC/MS.

CCC(=O)Oc1cc(OC(=O)CC)c2c(c1)O[C@H](c1ccc(OC(=O)CC)c(OC(=O)CC)c1)[C@H](OC(=O)CC)C2 [Compound 236, (2R,3R)-2-[3,4-bis(propanoyloxy)phenyl]-5,7-bis(propanoyloxy)-3,4-dihydro-2H-1-benzopyran-3-yl Propanoate]
Assay 1 (SGF) (% Remaining @ 1 hours) [1]: B (B: 25-75% of the tested compound remaining)
Assay 2 (SIF) (% @ Remaining 4 hours) [2]: A (A: <25% of the tested compound remaining)
Assay 3 (% Remaining at 24 h) [3]: A (A: <25% of the tested compound remaining)

CCCC(=O)OC[C@H]1O[C@@H](OC)[C@H](OC(=O)CCC)[C@@H](OC(=O)CCC)[C@H]1OC(=O)CCC [Compound 93, [(2R,3S,4S,5R,6R)-3,4,5-tris(butanoyloxy)-6-methoxyoxan-2-yl]methyl Butanoate]
Assay 2 (SIF) (% @ Remaining 4 hours) [2]: A (A: <25% of the tested compound remaining)
Assay 3 (% Remaining at 24 h) [3]: A (A: <25% of the tested compound remaining)

CCCC(=O)O[C@@H]1[C@@H](OC(=O)CCC)[C@H](OC)OC[C@H]1OC(=O)CCC [Compound 121, (2R,3R,4S,5R)-4,5-bis(butanoyloxy)-2-methoxyoxan-3-yl Butanoate]
Assay 2 (SIF) (% @ Remaining 4 hours) [2]: A (A: <25% of the tested compound remaining)
Assay 3 (% Remaining at 24 h) [3]: A (A: <25% of the tested compound remaining)

CCCC(=O)O[C@@H]1[C@@H](OC(=O)CCC)[C@H](OC(=O)CCc2c[nH]c3ccccc23)OC[C@H]1OC(=O)CCC [Compound 129, (2S,3R,4S,5R)-4,5-bis(butanoyloxy)-2-{[3-(1H-indol-3-yl)propanoyl]oxy}oxan-3-yl Butanoate]
Assay 1 (SGF) (% Remaining @ 1 hours) [1]: B (B: 25-75% of the tested compound remaining)
Assay 3 (% Remaining at 24 h) [3]: A (A: <25% of the tested compound remaining)

CCC(=O)O[C@@H]1[C@@H](OC(=O)CC)[C@H](OC(=O)/C=C/c2c[nH]c3ccccc23)OC[C@@H]1OC(=O)CC [Compound 132, (2S,3R,4S,5S)-3,4,5-tris(propanoyloxy)oxan-2-yl (2E)-3-(1H-indol-3-yl)prop-2-enoate]
Assay 1 (SGF) (% Remaining @ 1 hours) [1]: B (B: 25-75% of the tested compound remaining)
Assay 3 (% Remaining at 24 h) [3]: A (A: <25% of the tested compound remaining)

CCC(=O)OC[C@H]1O[C@@H](OC)[C@H](OC(=O)CC)[C@@H](OC(=O)CC)[C@H]1OC(=O)CC [Compound 94, [(2R,3S,4S,5R,6R)-6-methoxy-3,4,5-tris(propanoyloxy)oxan-2-yl]methyl Propanoate]
Assay 2 (SIF) (% @ Remaining 4 hours) [2]: A (A: <25% of the tested compound remaining)
Assay 3 (% Remaining at 24 h) [3]: A (A: <25% of the tested compound remaining)

CCCC(=O)O[C@@H]1[C@@H](OC(=O)CCC)[C@H](C)O[C@H](OC(=O)CCc2c[nH]c3ccccc23)[C@@H]1OC(=O)CCC [Compound 119, (2R,3R,4R,5S,6S)-4,5-bis(butanoyloxy)-2-{[3-(1H-indol-3-yl)propanoyl]oxy}-6-methyloxan-3-yl Butanoate]
Assay 1 (SGF) (% Remaining @ 1 hours) [1]: B (B: 25-75% of the tested compound remaining)
Assay 3 (% Remaining at 24 h) [3]: A (A: <25% of the tested compound remaining)

CCCC(=O)O[C@H]1[C@H](OC(=O)CCC)[C@@H](OC(=O)CCc2c[nH]c3ccccc23)O[C@@H](C)[C@H]1OC(=O)CCC [Compound 120, (2R,3S,4R,5R,6S)-4,5-bis(butanoyloxy)-2-{[3-(1H-indol-3-yl)propanoyl]oxy}-6-methyloxan-3-yl Butanoate]
Assay 1 (SGF) (% Remaining @ 1 hours) [1]: B (B: 25-75% of the tested compound remaining)
Assay 3 (% Remaining at 24 h) [3]: A (A: <25% of the tested compound remaining)

O=C(CCc1c[nH]c2ccccc12)Oc1ccc2c(c1)oc(=O)c1cc(OC(=O)CCc3c[nH]c4ccccc34)c(OC(=O)CCc3c[nH]c4ccccc34)cc12 [Compound 246, 8,9-bis({[3-(1H-indol-3-yl)propanoyl]oxy})-6-oxo-6H-benzo[c]chromen-3-yl 3-(1H-indol-3-yl)propanoate]
Assay 2 (SIF) (% @ Remaining 4 hours) [2]: B (B: 25-75% of the tested compound remaining)
Assay 3 (% Remaining at 24 h) [3]: B (B: 25-75% of the tested compound remaining)

O=C(CCc1c[nH]c2ccccc12)O[C@@H]1O[C@H](C(=O)O)[C@@H](OC(=O)CCc2c[nH]c3ccccc23)[C@H](OC(=O)CCc2c[nH]c3ccccc23)[C@H]1OC(=O)CCc1c[nH]c2ccccc12 [Compound 82, (2S,3S,4S,5R,6S)-3,4,5,6-tetrakis({[3-(1H-indol-3-yl)propanoyl]oxy})oxane-2-carboxylic Acid]
Assay 2 (SIF) (% @ Remaining 4 hours) [2]: A (A: <25% of the tested compound remaining)
Assay 3 (% Remaining at 24 h) [3]: A (A: <25% of the tested compound remaining)

CCCC(=O)OC[C@H]1O[C@H](OC)[C@H](OC(=O)CCC)[C@@H](OC(=O)CCC)[C@H]1OC(=O)CCC [Compound 89, [(2R,3S,4S,5R,6S)-3,4,5-tris(butanoyloxy)-6-methoxyoxan-2-yl]methyl Butanoate]
Assay 2 (SIF) (% @ Remaining 4 hours) [2]: A (A: <25% of the tested compound remaining)
Assay 3 (% Remaining at 24 h) [3]: A (A: <25% of the tested compound remaining)

C[C@@H]1O[C@@H](OC(=O)CCc2c[nH]c3ccccc23)[C@@H](OC(=O)CCc2c[nH]c3ccccc23)[C@H](OC(=O)CCc2c[nH]c3ccccc23)[C@@H]1OC(=O)CCc1c[nH]c2ccccc12 [Compound 97, (2S,3S,4R,5R,6S)-3,4,5-tris({[3-(1H-indol-3-yl)propanoyl]oxy})-6-methyloxan-2-yl 3-(1H-indol-3-yl)propanoate]
Assay 2 (SIF) (% @ Remaining 4 hours) [2]: A (A: <25% of the tested compound remaining)
Assay 3 (% Remaining at 24 h) [3]: A (A: <25% of the tested compound remaining)

[2H]C([2H])([2H])C([2H])([2H])CC(=O)O[C@@H]1[C@@H](OC(=O)CC([2H])([2H])C([2H])([2H])[2H])[C@H](Oc2ccc(N)cc2C(=O)O)OC[C@H]1OC(=O)CC([2H])([2H])C([2H])([2H])[2H] [Compound 230, 5-amino-2-{[(2S,3R,4S,5R)-3,4,5-tris[(3,3,4,4,4-^2H5)butanoyloxy]oxan-2-yl]oxy}benzoic Acid]
Assay 3 (% Remaining at 24 h) [3]: B (B: 25-75% of the tested compound remaining)

CCCC(=O)Oc1ccc2c(c1)oc(=O)c1cc(OC(=O)CCC)c(OC(=O)CCC)cc12 [Compound 248, 8,9-bis(butanoyloxy)-6-oxo-6H-benzo[c]chromen-3-yl Butanoate]
Assay 3 (% Remaining at 24 h) [3]: A (A: <25% of the tested compound remaining)

CCC(=O)O[C@H]1[C@H](OC(=O)CC)[C@H](OC(=O)CCc2c[nH]c3ccccc23)O[C@@H](C)[C@H]1OC(=O)CC [Compound 155, (2S,3S,4R,5R,6S)-6-methyl-3,4,5-tris(propanoyloxy)oxan-2-yl 3-(1H-indol-3-yl)propanoate]
Assay 2 (SIF) (% @ Remaining 4 hours) [2]: C (C: >75% of the tested compound remaining)
Assay 3 (% Remaining at 24 h) [3]: A (A: <25% of the tested compound remaining)

[2H]C([2H])([2H])C([2H])([2H])CC(=O)O[C@@H]1[C@@H](OC(=O)CC([2H])([2H])C([2H])([2H])[2H])[C@H](Oc2ccc(N)cc2C(=O)O)OC[C@H]1O [Compound 234, 5-amino-2-{[(2S,3R,4S,5R)-3,4-bis[(3,3,4,4,4-^2H5)butanoyloxy]-5-hydroxyoxan-2-yl]oxy}benzoic Acid]
Assay 3 (% Remaining at 24 h) [3]: B (B: 25-75% of the tested compound remaining)

CCC(=O)OC[C@H]1O[C@@H](OC)[C@H](OC(=O)CC)[C@@H](OC(=O)CC)[C@@H]1OC(=O)CC [Compound 92, [(2R,3R,4S,5R,6R)-6-methoxy-3,4,5-tris(propanoyloxy)oxan-2-yl]methyl Propanoate]
Assay 2 (SIF) (% @ Remaining 4 hours) [2]: A (A: <25% of the tested compound remaining)
Assay 3 (% Remaining at 24 h) [3]: A (A: <25% of the tested compound remaining)

CCC(=O)OC[C@H]1O[C@H](OC(=O)/C=C/c2c[nH]c3ccccc23)[C@H](OC(=O)CC)[C@@H](OC(=O)CC)[C@@H]1OC(=O)CC [Compound 131, (2R,3R,4S,5R,6R)-3,4,5-tris(propanoyloxy)-6-[(propanoyloxy)methyl]oxan-2-yl (2E)-3-(1H-indol-3-yl)prop-2-enoate]
Assay 1 (SGF) (% Remaining @ 1 hours) [1]: B (B: 25-75% of the tested compound remaining)
Assay 3 (% Remaining at 24 h) [3]: A (A: <25% of the tested compound remaining)

CCCC(=O)O[C@H]1[C@H](OC(=O)CCC)COC(O)[C@@H]1OC(=O)CCC (stereo partly drawn) [Compound 190, (3R,4S,5R)-4,5-bis(butanoyloxy)-2-hydroxyoxan-3-yl Butanoate]
Assay 2 (SIF) (% @ Remaining 4 hours) [2]: A (A: <25% of the tested compound remaining)
Assay 3 (% Remaining at 24 h) [3]: A (A: <25% of the tested compound remaining)

O=C(CCc1c[nH]c2ccccc12)O[C@H]1OC[C@H](OC(=O)CCc2c[nH]c3ccccc23)[C@H](OC(=O)CCc2c[nH]c3ccccc23)[C@H]1OC(=O)CCc1c[nH]c2ccccc12 [Compound 181, (2R,3R,4S,5S)-3,4,5-tris({[3-(1H-indol-3-yl)propanoyl]oxy})oxan-2-yl 3-(1H-indol-3-yl)propanoate]
Assay 2 (SIF) (% @ Remaining 4 hours) [2]: A (A: <25% of the tested compound remaining)
Assay 3 (% Remaining at 24 h) [3]: A (A: <25% of the tested compound remaining)

CCCC(=O)OC[C@H]1O[C@@H](OC)[C@H](OC(=O)CCC)[C@@H](OC(=O)CCC)[C@@H]1OC(=O)CCC [Compound 91, [(2R,3R,4S,5R,6R)-3,4,5-tris(butanoyloxy)-6-methoxyoxan-2-yl]methyl Butanoate]
Assay 2 (SIF) (% @ Remaining 4 hours) [2]: A (A: <25% of the tested compound remaining)
Assay 3 (% Remaining at 24 h) [3]: A (A: <25% of the tested compound remaining)
